Data on three compounds can be found in PMC9500072, “Topical application of an irreversible small molecule inhibitor of lysyl oxidases ameliorates skin scarring and fibrosis” (Nature Communications, 2022).

In series [1] the target is T1, DAO (Homo sapiens, UniProt P19801).
T1 sequence (P19801 20-751): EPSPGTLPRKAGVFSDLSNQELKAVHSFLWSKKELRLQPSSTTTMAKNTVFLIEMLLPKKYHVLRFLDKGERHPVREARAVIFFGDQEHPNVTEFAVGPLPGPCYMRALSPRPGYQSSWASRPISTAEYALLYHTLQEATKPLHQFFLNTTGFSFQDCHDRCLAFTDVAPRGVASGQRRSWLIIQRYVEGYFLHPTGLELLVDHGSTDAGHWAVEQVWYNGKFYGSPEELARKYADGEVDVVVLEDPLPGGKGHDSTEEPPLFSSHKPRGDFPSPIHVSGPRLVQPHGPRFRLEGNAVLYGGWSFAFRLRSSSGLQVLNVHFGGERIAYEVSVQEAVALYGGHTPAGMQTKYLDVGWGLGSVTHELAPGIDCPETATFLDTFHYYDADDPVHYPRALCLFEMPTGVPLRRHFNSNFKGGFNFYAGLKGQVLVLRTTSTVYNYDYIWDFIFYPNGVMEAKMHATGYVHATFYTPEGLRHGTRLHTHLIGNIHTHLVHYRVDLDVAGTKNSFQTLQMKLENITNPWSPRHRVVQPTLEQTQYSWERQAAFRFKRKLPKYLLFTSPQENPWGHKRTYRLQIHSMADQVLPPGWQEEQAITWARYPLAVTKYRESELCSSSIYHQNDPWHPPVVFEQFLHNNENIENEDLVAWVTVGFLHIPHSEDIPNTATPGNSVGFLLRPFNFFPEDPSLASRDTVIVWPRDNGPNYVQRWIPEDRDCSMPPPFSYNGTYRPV
Description: Compound oxidation by DAO. It is filed as biochemical.

The target in series [2] is Leukotriene, Cysteinyl CysLT1 (Homo sapiens, UniProt Q9Y271). Description: Eurofins panel 250460. The format is binding.
For series [3], the target named is Sigma σ1 (Homo sapiens, UniProt Q99720). The experiment in a line: Eurofins panel 278110. It is filed as binding.
Series [4] addresses Calcium Channel N-Type (Rattus norvegicus, UniProt Q02294). The experiment in a line: Eurofins panel 216000. The format is binding.
Series [5] deals with Histamine H3 (Homo sapiens, UniProt Q9Y5N1). Description: Eurofins panel 239820. The format is binding.
Series [6] has as its target Bradykinin B1 (Homo sapiens, UniProt P46663). The experiment in a line: Eurofins panel 212510. The format is binding.
For series [7], the system named is Nicotinic Acetylcholine. The experiment in a line: Eurofins panel 258590. The format is binding, human. To be noted: 10 µM.
Series [8] has as its system Glutamate, NMDA, Glycine. Description: Eurofins panel 232910. It is filed as binding, rat. To be noted: 10 µM.
Series [9] relates to Glutamate, NMDA, Agonism. The experiment in a line: Eurofins panel 232810. The format is binding, rat.
For series [10], the target named is Epidermal Growth Factor (EGF) (Homo sapiens, UniProt P00533). The experiment in a line: Eurofins panel 225510. It is filed as binding.
For series [11], the target named is Histamine H2 (Homo sapiens, UniProt P25021). Description: Eurofins panel 239710. It is filed as binding.
Series [12] addresses Tachykinin NK1 (Homo sapiens, UniProt P25103). The experiment in a line: Eurofins panel 255520. The format is binding.
The target of series [13] is Opiate κ(OP2, KOP) (Homo sapiens, UniProt P41145). Description: Eurofins panel 260210. It is filed as binding.
The target in series [14] is Adenosine A1 (Homo sapiens, UniProt P30542). The experiment in a line: Eurofins panel 200510. The format is binding.
Series [15] concerns the target Neuropeptide Y Y2 (Homo sapiens, UniProt P49146). The experiment in a line: Eurofins panel 257110. The format is binding.
The test system of series [16] is keratinocytes. The experiment in a line: RNASeq transcriptome analysis, keratinocytes. The format is cell-based, human. As to conditions: 24 hrs of treatment.
In series [17] the target is Interleukin IL-1 (Mus musculus, UniProt P13504). The experiment in a line: Eurofins panel 243520. It is filed as binding.
For series [18], the target named is Nicotinic Acetylcholine α1, Bungarotoxin (Homo sapiens, UniProt P02708+P07510+Q07001). The experiment in a line: Eurofins panel 258700. It is filed as binding. To be noted: read-out: % Inh.
The target in series [19] is Phosphodiesterase PDE4D2 (Homo sapiens, UniProt Q08499). The experiment in a line: Eurofins panel 154420. The format is biochemical.
For series [20], the target named is Monoamine Oxidase MAO-A (Homo sapiens, UniProt P21397). Description: Eurofins panel 140010. The format is biochemical.
In series [21] the target is Phosphodiesterase PDE3A (Homo sapiens, UniProt Q14432). Description: Eurofins panel 152300. It is filed as biochemical.
The subject of series [22] is lysyl oxidases. The arrangement: method as in ACTRN1262100322831. As to conditions: ref ACTRN1262100322831; cited from earlier work.
The target in series [23] is Protein Tyrosine Kinase, LCK (Homo sapiens, UniProt P06239). Description: Eurofins panel 176020. The format is biochemical.
The target in series [24] is Cholecystokinin CCK1 (CCKA) (Homo sapiens, UniProt P32238). Description: Eurofins panel 218030. The format is binding.
A short description of series [25]: PAMPA permeability. The format is in vitro ADME. A general note: PAMPA measures passive passage across an artificial lipid membrane.

Values joined by “and” are separate entries in the source; they are usually repeats but may differ in a detail not shown here. Equal values may be shown once.

Chain of Opiate κ(OP2, KOP) (P41145 whole entry): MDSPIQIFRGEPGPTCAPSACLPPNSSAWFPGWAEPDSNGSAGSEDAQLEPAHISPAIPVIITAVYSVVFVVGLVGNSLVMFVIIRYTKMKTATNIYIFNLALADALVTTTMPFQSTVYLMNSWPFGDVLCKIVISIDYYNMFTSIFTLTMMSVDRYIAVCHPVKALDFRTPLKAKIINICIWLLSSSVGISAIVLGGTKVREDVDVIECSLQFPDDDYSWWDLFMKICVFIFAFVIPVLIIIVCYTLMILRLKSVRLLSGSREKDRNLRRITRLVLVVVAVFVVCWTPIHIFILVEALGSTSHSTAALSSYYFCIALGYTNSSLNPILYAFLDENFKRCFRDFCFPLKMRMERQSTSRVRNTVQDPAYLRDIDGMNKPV
Chain of Histamine H2 (P25021 whole entry): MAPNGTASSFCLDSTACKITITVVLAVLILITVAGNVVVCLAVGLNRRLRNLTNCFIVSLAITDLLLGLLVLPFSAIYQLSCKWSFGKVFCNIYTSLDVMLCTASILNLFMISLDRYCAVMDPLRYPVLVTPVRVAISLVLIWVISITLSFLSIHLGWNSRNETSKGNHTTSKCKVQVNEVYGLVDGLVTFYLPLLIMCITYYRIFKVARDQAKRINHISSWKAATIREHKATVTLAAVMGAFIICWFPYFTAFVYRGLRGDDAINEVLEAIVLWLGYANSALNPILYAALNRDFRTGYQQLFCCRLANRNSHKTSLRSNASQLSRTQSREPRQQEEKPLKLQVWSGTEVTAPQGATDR
Chain of Nicotinic Acetylcholine α1, Bungarotoxin (P07510 23-517): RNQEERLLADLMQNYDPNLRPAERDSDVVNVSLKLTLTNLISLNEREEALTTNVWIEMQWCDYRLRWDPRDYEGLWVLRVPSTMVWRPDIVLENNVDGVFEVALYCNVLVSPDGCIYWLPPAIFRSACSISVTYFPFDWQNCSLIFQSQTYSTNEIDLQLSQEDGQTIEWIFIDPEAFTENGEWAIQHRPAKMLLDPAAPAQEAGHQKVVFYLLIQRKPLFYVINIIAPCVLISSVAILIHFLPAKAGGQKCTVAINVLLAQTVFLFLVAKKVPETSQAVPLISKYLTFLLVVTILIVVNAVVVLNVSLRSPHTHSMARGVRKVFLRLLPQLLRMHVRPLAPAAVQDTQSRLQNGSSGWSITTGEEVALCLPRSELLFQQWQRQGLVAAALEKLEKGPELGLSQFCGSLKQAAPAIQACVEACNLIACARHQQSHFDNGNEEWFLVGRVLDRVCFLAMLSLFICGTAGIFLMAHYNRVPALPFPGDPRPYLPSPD
Chain of Nicotinic Acetylcholine α1, Bungarotoxin (P11230 24-501, further chain): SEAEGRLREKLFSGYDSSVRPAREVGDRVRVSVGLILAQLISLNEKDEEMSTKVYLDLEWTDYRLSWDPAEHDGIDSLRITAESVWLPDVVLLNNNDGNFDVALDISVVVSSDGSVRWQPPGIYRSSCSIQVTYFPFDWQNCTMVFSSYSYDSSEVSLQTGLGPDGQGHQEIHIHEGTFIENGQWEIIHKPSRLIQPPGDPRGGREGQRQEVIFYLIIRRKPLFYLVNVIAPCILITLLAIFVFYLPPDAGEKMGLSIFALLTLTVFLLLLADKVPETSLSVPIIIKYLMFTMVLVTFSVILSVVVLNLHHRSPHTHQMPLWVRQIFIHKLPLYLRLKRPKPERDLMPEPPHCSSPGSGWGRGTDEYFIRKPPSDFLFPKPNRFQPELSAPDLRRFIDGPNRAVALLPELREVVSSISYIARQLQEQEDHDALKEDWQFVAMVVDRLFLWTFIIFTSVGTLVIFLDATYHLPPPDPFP
Chain of Nicotinic Acetylcholine α1, Bungarotoxin (P02708 21-457): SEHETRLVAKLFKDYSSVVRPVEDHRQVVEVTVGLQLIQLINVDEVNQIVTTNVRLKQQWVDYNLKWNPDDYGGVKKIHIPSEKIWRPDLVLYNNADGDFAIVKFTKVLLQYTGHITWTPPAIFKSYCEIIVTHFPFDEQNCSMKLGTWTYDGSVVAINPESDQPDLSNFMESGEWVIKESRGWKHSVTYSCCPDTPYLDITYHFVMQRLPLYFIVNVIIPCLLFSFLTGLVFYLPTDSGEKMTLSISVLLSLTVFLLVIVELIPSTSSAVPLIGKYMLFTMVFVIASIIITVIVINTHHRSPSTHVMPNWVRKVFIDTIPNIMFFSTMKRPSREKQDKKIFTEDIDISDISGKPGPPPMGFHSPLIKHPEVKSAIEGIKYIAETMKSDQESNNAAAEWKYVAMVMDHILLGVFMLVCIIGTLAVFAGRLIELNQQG
Chain of Nicotinic Acetylcholine α1, Bungarotoxin (Q07001 22-517): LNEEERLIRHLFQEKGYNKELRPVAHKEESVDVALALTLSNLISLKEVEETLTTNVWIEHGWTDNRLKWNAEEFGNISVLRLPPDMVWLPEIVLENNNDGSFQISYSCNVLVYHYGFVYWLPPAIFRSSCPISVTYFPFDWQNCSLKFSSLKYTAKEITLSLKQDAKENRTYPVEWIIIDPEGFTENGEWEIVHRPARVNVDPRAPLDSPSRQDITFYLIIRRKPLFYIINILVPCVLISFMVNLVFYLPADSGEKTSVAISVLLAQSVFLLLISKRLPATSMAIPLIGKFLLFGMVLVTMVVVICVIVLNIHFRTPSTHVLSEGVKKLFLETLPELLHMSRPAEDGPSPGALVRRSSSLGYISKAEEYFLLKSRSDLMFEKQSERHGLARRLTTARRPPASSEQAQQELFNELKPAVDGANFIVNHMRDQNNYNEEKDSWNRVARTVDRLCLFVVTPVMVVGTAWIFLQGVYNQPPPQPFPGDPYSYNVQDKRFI
Chain of Histamine H3 (Q9Y5N1 whole entry): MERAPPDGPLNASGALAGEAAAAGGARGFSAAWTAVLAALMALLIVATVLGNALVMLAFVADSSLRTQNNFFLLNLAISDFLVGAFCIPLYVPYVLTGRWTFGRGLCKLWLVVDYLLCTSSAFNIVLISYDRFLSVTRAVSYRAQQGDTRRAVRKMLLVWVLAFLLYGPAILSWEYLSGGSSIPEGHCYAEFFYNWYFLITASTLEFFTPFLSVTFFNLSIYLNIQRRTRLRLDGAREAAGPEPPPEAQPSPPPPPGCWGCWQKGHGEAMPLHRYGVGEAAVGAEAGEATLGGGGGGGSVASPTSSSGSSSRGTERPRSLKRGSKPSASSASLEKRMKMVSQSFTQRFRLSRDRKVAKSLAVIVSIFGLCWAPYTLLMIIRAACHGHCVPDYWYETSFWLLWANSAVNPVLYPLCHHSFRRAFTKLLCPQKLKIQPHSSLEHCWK
Chain of Bradykinin B1 (P46663 whole entry): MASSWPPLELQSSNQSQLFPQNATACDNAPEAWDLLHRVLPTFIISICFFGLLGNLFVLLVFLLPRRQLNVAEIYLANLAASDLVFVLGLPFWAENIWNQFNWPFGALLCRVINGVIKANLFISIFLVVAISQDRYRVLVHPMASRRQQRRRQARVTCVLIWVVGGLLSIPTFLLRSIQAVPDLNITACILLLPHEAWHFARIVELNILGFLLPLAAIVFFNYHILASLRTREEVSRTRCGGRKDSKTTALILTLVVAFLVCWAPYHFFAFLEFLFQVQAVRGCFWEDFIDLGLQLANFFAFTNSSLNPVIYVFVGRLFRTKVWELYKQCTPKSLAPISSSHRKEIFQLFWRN
Chain of Adenosine A1 (P30542 whole entry): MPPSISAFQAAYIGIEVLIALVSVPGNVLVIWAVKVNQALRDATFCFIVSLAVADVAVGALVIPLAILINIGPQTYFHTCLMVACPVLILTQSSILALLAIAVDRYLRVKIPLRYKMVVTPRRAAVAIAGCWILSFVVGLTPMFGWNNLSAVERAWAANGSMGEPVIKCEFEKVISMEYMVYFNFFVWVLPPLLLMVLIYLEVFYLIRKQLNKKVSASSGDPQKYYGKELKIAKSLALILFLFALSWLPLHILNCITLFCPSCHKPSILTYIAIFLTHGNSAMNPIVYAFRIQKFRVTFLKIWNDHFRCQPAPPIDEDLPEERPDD
Chain of Epidermal Growth Factor (EGF) (P00533 25-1210): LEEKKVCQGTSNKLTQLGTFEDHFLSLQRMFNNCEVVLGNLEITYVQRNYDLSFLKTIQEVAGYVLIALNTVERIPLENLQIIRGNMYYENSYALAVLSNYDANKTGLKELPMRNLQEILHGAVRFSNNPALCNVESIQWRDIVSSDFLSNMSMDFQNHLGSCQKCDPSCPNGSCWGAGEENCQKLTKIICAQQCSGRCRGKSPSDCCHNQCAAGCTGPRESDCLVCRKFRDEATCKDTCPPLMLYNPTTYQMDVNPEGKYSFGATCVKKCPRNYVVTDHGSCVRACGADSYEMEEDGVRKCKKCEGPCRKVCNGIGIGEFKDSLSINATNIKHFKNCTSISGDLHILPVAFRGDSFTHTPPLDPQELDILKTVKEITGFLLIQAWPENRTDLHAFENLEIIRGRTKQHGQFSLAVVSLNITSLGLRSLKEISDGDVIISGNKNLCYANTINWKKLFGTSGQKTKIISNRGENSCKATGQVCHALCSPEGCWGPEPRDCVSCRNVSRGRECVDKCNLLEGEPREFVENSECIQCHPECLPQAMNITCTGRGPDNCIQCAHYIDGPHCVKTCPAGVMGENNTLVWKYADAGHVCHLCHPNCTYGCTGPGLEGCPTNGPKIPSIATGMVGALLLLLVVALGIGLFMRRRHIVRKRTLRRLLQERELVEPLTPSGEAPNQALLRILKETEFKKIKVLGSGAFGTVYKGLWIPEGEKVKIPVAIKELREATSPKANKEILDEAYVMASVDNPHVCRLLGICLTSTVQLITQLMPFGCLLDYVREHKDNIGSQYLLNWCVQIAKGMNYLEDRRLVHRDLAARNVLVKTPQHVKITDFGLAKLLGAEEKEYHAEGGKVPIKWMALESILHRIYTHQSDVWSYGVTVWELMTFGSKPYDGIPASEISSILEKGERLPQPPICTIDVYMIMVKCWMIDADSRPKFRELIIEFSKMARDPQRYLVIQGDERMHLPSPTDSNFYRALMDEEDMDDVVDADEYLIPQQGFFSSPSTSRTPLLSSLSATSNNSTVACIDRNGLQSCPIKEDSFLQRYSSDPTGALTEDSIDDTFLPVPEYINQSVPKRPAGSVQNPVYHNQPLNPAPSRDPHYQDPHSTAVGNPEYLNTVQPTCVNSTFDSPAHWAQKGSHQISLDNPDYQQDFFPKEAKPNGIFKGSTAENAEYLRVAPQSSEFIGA

For `N#CCCN` [BAPN, β-aminoproprionitrile, reference compound], the “DAO specificity (Fig 2G), oxidation, individual experiments” value in series [1] (30) was 3.03 and 4.57 and 4.19 and 2.62 and 3.96; in series [1] (60), 5.81 and 3.22 and 2.98 and 4.96; in series [1] (90), 9.3 and 4.42 and 7.32.

With `NC/C=C(\F)CS(=O)(=O)c1ccccc1` [PXS-4787], the inhibition at 10 µM is -3% in [2]; -10% in series [3]; 0% in series [4]; -5% in series [5]; 6% in series [6]; 1% in [10]. Moreover, the inhibition at 10 µM in series [11] (10 µM) was -4%; in series [12] it was 10%; in series [13] (10 µM), 3%; in [14], 1%; in series [15], 0%; in [17] it was 7%. The inhibition at 10 µM in series [18] was -3%. The “% Inh.” value in series [7] is reported as 1%; in [8], 5%; in series [9] (10 µM) it was 2%. Also, the “Log2 fold change LOC101927136” value in [16] is listed as 3.918. Besides, the “Log2 fold change TMOD1” value in series [16] was 4.799.

For `NC/C=C(\F)C(F)(F)S(=O)(=O)c1ccccc1` [PXS-6302], the inhibition at 30 µM in [19] is 3%; in [20], 10%; in series [21], -4%; in series [11] (read-out: % Inh.) it was 5%; in [13] (read-out: % Inh.) it was 10%; in series [23], 1%. Also, the inhibition at 30 µM in series [24] is 1%. In addition, the “target engagement and inhibition in phase I trial” value in series [22] was “strong target engagement and long-lasting inhibition”. In addition, the “% Inh.” value in series [9] (30 µM) is -16%. In addition, the “DAO specificity (Fig 2G), oxidation, individual experiments” value in series [1] (30) is 1.03 and 0.98 and 1 and 1.08 and 0.97 and 0.99 and 1.04 and 1.01 and 1.07 and 0.91; in [1] (60), 1.17 and 1.11 and 1.01; in series [1] (90), 1.87 and 1.39 and 1.55. Besides, in series [25], the “PAMPA permeability (class in words)” value was “High and high permeability”. Besides, the Papp in series [25] (GIT PAMPA at pH 7.4, read-out: PAMPA permeability, Average of P) came to 168 ×10⁻⁶ cm/s.
